Laboratory results published in patent publication EP4813403A1, “USE OF GLP-1R/GIPR DOUBLE-TARGET AGONIST IN PREPARING ANIMAL DRUG” (Hangzhou Zhongmeihuadong Pharmaceutical Co., Ltd., priority 2023, dated 2025).

Tests used:
[1] = Repeated administration on male rats for 2 weeks (toxicity, toxicokinetics); type: in vivo, SD male rats; settings: for MTD: MTD for 2 weeks, rats; for dose at which decrease of the body weight was observed after the first administration / accumulation (toxicokinetic) / MTD at 336 h: SD male rats; for Gross Anatomy: SD male rats, 1, 3, 10 mg/kg twice a week for 2 weeks; for accumulation (toxicokinetic) / MTD at 336 h: administered twice a week for 2 weeks; for MTD at 336 h: Sprague-Dawley; for MTD at 336 h / safety window (based on exposure), times of that of Tirzepatide: rat, in vivo; for Safety Window (based on dosage): rat 2-week MTD versus efficacy dose
Description: 77 SD male rats (SPF grade) were selected and randomly divided into 10 groups based on body weight. Group 1 was the vehicle control group, including 5 animals. […] Group 5 to Group 7 were the groups administrated with the test substance 1; and Group 8 to Group 10 were the groups administrated with the test substance 2, each group including 8 animals, wherein 5 animals for primary test, and 3 animals for toxicokinetics test, and the administration dose was 1, 3 and 10 mg/kg respectively. Each of the above groups was continuously administered twice a week for 2 weeks (administrating at Day 1, Day 5, Day 8, Day 12 and Day 15).
During the experiment, the cage condition monitoring, detailed clinical observations, determination of the food consumption, determination of body weight, measurement of the blood biochemical and hematology indicator, investigation of the gross anatomy, weighing of the organ, studying on toxicokinetic were performed on all the groups of the animals.
Original data during each time period was tabulated. The average values and standard deviations and/or group change were calculated for each assay endpoint based on the group and sex. For each endpoint, the administrated group will be compared with the control group in the following aspect. A logarithmic conversion was performed to the endpoint data as desired prior to the start of the specific analyses.

cat GIPR = assay: Agonistic activity on GIPR of different species (LANCE Ultra cAMP assay): cat; type: cell-based; settings: ratio of EC50 value of other species to human EC50 value
Description: CHO-K1 cells were seeded in a 6-well plate at 0.6×10^6 cells/well and incubated overnight in an incubator at a temperature of 37 °C and a carbon dioxide concentration of 5%. The next day, CHO-K1 cell media were replaced. Then two tubes A and B were prepared for each plasmid. 100 µL Opti-MEM was added to tube A, then 4 µL Lipofectamine™ 3000 was added and mixed uniformly. 100 µL Opti-MEM was firstly added to tube B, then 2 µg of one of the plasmids (human GLP-1R-pcDNA5 (+) plasmid, cat GLP-1R-pcDNA5 (+) plasmid, human GIPR-pcDNA5 (+) plasmid, cat GIPR-pcDNA5 (+) plasmid) was added and mixed uniformly, and 4 µL P3000™ was added to tube B and mixed uniformly (the ratio of plasmid to transfection reagent was 1 µg: 2 µL). The diluted solution in tube A was added to the diluted solution in tube B, mixed evenly, and incubated at room temperature for 15 minutes. […]
18-20 hours after transfection, human GLP-1R-CHO, cat GLP-1R-CHO, human GIPR-CHO, cat GIPR-CHO cells were resuspended in 1×Casein Stimulation Buffer (HBSS, 5 mM HEPES, 0.5 mM IBMX, 0.1% casein, pH7.4), and seeded into a 384-well cell culture plate at 9 µL/well (cell numbers being 2000, 2000, 1000, 2000 cells/well, respectively). […] The readings at 665 nm and 620 nm were determined with a 330 nm excitation light on a microplate reader. The 665 nm/620 nm reading ratio was calculated. […]

rat GLP-1R = biological target: T1, rat GLP-1R (Rattus norvegicus, UniProt P32301); assay: Agonistic activity on GLP-1R of different species (LANCE Ultra cAMP assay): rat; type: cell-based; settings: ratio of EC50 value of other species to human EC50 value
T1 construct: expressed in transfected cells
T1 sequence (P32301 22-463): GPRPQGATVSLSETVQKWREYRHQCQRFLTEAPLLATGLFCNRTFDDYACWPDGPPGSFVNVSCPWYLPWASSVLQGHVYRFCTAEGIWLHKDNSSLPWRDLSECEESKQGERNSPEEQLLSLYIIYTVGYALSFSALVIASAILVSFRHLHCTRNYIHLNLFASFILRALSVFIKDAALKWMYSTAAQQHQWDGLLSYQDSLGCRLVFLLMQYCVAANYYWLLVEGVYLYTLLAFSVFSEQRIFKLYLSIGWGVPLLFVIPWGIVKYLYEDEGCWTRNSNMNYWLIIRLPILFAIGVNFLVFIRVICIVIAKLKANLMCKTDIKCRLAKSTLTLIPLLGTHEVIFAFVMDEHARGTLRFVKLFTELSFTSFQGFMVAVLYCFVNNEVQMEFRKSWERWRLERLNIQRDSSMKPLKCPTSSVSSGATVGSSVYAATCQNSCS

| Compound | MTD [1] | dose at which decrease of the body weight was observed after the first administration [1] [mg/kg] | Gross Anatomy [1] | accumulation (toxicokinetic) [1] | MTD at 336 h [1] [mg/kg] | Safety Window (based on dosage) [1] | safety window (based on exposure), times of that of Tirzepatide [1] | GIPR EC50 ratio (cat GIPR) | GLP-1R EC50 ratio (rat GLP-1R) |
| --- | --- | --- | --- | --- | --- | --- | --- | --- | --- |
| CC[C@H](C)[C@H](NC(=O)C(C)(C)NC(=O)[C@H](Cc1ccc(O)cc1)NC(=O)[C@H](CC(=O)O)NC(=O)[C@H](CO)NC(=O)[C@@H](NC(=O)C(C)(Cc1ccccc1)NC(=O)[C@@H](NC(=O)CNC(=O)[C@H](CCC(=O)O)NC(=O)C(C)(C)NC(=O)[C@@H](N)Cc1ccc(O)cc1)[C@@H](C)O)[C@@H](C)O)C(=O)NC(C)(C)C(=O)N[C@@H](CC(C)C)C(=O)N[C@@H](CC(=O)O)C(=O)N[C@@H](CCCCN)C(=O)N[C@@H](CCC(N)=O)C(=O)N[C@@H](C)C(=O)N[C@@H](CCC(N)=O)C(=O)N[C@@H](C)C(=O)N[C@@H](CCC(=O)O)C(=O)N[C@@H](Cc1ccccc1)C(=O)N[C@H](C(=O)N[C@@H](CCCCNC(=O)COCCOCCNC(=O)COCCOCCNC(=O)CC[C@H](NC(=O)CCCCCCCCCCCCCCCCCCCCC(=O)O)C(=O)O)C(=O)N[C@@H](Cc1c[nH]c2ccccc12)C(=O)N[C@@H](CC(C)C)C(=O)N[C@@H](CC(C)C)C(=O)N[C@@H](CCCCN)C(=O)NCC(=O)NCC(=O)N1CCC[C@H]1C(=O)N[C@@H](CO)C(=O)N[C@@H](CO)C(=O)NCC(=O)N[C@@H](C)C(=O)N1CCC[C@H]1C(=O)N1CCC[C@H]1C(=O)N1CCC[C@H]1C(=O)N[C@@H](CO)C(=O)N[C@@H](CCCCN)C(N)=O)C(C)C (stereo partly shown) [Compound P014] | 1980 nmol/kg (MTD for 2 weeks) | ≥ 1 | no abnormalities were found | no substantial accumulation | ≥ 10 | 1319 | more than 4 times | – | – |
| CC[C@H](C)[C@H](NC(=O)C(C)(C)NC(=O)[C@H](Cc1ccc(O)cc1)NC(=O)[C@H](CC(=O)O)NC(=O)[C@H](CO)NC(=O)[C@@H](NC(=O)C(C)(Cc1ccccc1)NC(=O)[C@@H](NC(=O)CNC(=O)[C@H](CCC(=O)O)NC(=O)C(C)(C)NC(=O)[C@@H](N)Cc1ccc(O)cc1)[C@@H](C)O)[C@@H](C)O)C(=O)NC(C)(C)C(=O)N[C@@H](CC(C)C)C(=O)N[C@@H](CC(=O)O)C(=O)N[C@@H](CCCCN)C(=O)N[C@@H](CCC(N)=O)C(=O)N[C@@H](C)C(=O)N[C@@H](CCC(N)=O)C(=O)N[C@@H](C)C(=O)N[C@@H](CCC(=O)O)C(=O)N[C@@H](Cc1ccccc1)C(=O)N[C@H](C(=O)N[C@@H](CCCCNC(=O)COCCOCCNC(=O)COCCOCCNC(=O)COCCOCCNC(=O)CC[C@H](NC(=O)CCCCCCCCCCCCCCCCCCCCC(=O)O)C(=O)O)C(=O)N[C@@H](Cc1c[nH]c2ccccc12)C(=O)N[C@@H](CC(C)C)C(=O)N[C@@H](CC(C)C)C(=O)N[C@@H](CCCCN)C(=O)NCC(=O)NCC(=O)N1CCC[C@H]1C(=O)N[C@@H](CO)C(=O)N[C@@H](CO)C(=O)NCC(=O)N[C@@H](C)C(=O)N1CCC[C@H]1C(=O)N1CCC[C@H]1C(=O)N1CCC[C@H]1C(=O)N[C@@H](CO)C(=O)N[C@@H](CCCCN)C(N)=O)C(C)C (stereo partly shown) [Compound P016] | 1924 nmol/kg (MTD for 2 weeks) | ≥ 1 | no abnormalities were found | no substantial accumulation | ≥ 10 | 1282 | more than 7 times | 3.59 | 1.59 |
